Experiments:
Caco-2/TC7 tumor cells = assay: MTT cell viability, tumor Caco-2/TC7 cells (5 days after seeding); type: cell-based, human; conditions: for IC50: Caco-2/TC7, 5 days after seeding, 72 h incubation, MTT; for Tumor Cells Selectivity over Normal Cells: ratio of IC50 normal / tumor Caco-2/TC7 cells
Procedure: This study was conducted in the human enterocyte-like cell line Caco-2/TC7 [44]. This cell line undergoes a process of spontaneous differentiation in culture that leads to the formation of a monolayer of cells, expressing the morphological and functional characteristics of the mature enterocytes. This differentiation process is growth-dependent, where the cells undergo differentiation from “undifferentiated proliferative crypt-type cells” in the exponential phase of growth, to “differentiated enterocyte-type cells” in the stationary phase. The cell culture of Caco-2/TC7 cells (passages 30–50) was performed according to a previously reported method.
Cell survival was measured using the MTT test. The assay depends on the cellular reduction of 3-(4,5-dimethylthiazol-2-yl)-2,5-diphenyltetrazolium bromide (MTT, Sigma-Aldrich, Madrid, Spain) by the mitochondrial dehydrogenase of viable cells to a blue formazan product that can be measured spectrophotometrically, as previously described.
The in vitro cytotoxic effect was evaluated on human colon cancer cell line Caco-2/TC7. This particular cell line presents a huge advantage for toxicity studies because of its spontaneous enterocytic-like differentiation when confluence is reached. Therefore, Caco-2 cells become polarized cells expressing apical and basolateral surfaces with well-established tight junctions. Thus, cells present noncarcinogenic behavior in the confluence and the cytotoxic effect of our complexes can be performed on differentiated cells to evaluate the selectivity toward tumor cells. For the antiproliferative studies, MTT assay was performed after 72 h of exposure to different concentrations of the complexes at two different stages of confluence, five days to evaluate the effect on tumor cells (Figure S7) and 15 days for normal cells (Figure S8).

BSA = biological target: T1, BSA (Bos taurus, UniProt P02769); assay: BSA interaction, fluorescence quenching (Stern–Volmer); type: binding, bovine; conditions: for bimolecular quenching constant kq: BSA 50 μM in PBS pH 7.4; for Stern–Volmer quenching constant KSV: BSA 50 μM in PBS pH 7.4, excitation 295 nm; for number of binding sites n: modified Stern–Volmer equation; for number of binding sites n, rounded (in brackets): whole number printed in brackets after n
T1 construct: purchased Sigma Aldrich
Procedure: BSA was commercially available from Sigma Aldrich. A 2 mM solution of BSA was prepared in PBS (10 mM, pH = 7.4). The final concentration of the stock BSA solution was checked by UV–Vis spectra (ε279 nm = 43,824 M^−1 cm^−1). The value obtained was the real concentration of the stock solution. A 6 mM stock solution of the gold complexes in DMSO was prepared and different aliquots of the gold complex were added to a 50 μM solution of BSA in PBS and placed in a quartz cuvette of 1 cm optical path. The fluorescence spectra were recorded on a Horiba Jobin Yvon (Bensheim, Germany) fluorolog FL-3-11 spectrometer. The samples were excited at 295 nm and the emission spectra were recorded in a range from 310 to 450 nm with emission slits set to 2 nm. The fluorescence was measured for 4 min after every addition of the gold complex aliquots. The fluorescence intensities of the PBS and the gold complexes were irrelevant under the described conditions.
The data were analyzed using the Stern−Volmer equation F0/F = 1 + KSV (gold complex) = 1 + Kqτ0 (gold complex) (τ0 = lifetime of BSA in absence of the quencher) to obtain the Stern−Volmer quenching constant (KSV) and the quenching rate constant (Kq). The binding constant (Kb) was quantified using the modified Stern−Volmer equation: log {(F0 − F)/F} = log Kb + n log (gold complex) (n = number of binding sites).
This intrinsic fluorescence is extremely sensitive to the environment, so any binding or interaction of molecules induces changes in the BSA emission spectrum. Consequently, interaction with BSA studies are based on monitoring the BSA luminescence in the range of 300–450 nm by adding increasing concentrations of Au(III) complexes (Figure 3a and Figure S6). The obtained fluorescence data were analyzed using the Stern–Volmer equation, which allows the Stern-Volmer quenching constant KSV and the bimolecular quenching constant kq to be calculated (Figure 3b). In most of the cases studied, the Stern–Volmer representation fit a straight line, indicative of a single quenching mode, either static or dynamic. In case of drug development, static quenching is usually required to probe an interaction between the drug and the protein. By studying the bimolecular quenching constant (kq), the operated quenching can be determined since this parameter represents the efficiency of quenching or how accessible the fluorophores are to the quencher. Dynamic quenching depends on diffusion processes, so a higher kq value than the diffusion-controlled rate constant of the biomolecule in water, 10^10 M^−1s^−1, may indicate a contribution of static quenching. […] Additionally, the modified Stern–Volmer equation permits the values of the binding constant (Kb) for each gold complex and the number of binding sites (n) to be calculated. According to the Kb values observed in Table 3, there was a moderated interaction force between complex-BSA. These values were higher than other reported for gold(I) complexes, but similar to the documented interactions for potential drugs based on ruthenium or nickel.

[1] = tested on: methicillin-resistant Staphylococcus aureus (Sa); type: cell-based; conditions: 18 h, 37 °C, inhibition ≥ 80%
Procedure: The antimicrobial assays were performed according to the protocols of the Community for Open Antimicrobial Drug Discovery (CO-ADD). C1–6 were prepared in DMSO and water to a final testing concentration of 32 μg/mL and serially diluted 1:2-fold 8 times. Each sample concentration was prepared in 384-well plates, non-binding surface plate (NBS; Corning 3640) for each bacterial/fungal strain, all in duplicate (n = 2), and keeping the final DMSO concentration to a maximum of 0.5%. All the sample preparation was done using liquid-handling robots.
The antibacterial activity of all synthesized complexes was evaluated in five different pathogenic bacteria, including methicillin-resistant Staphylococcus aureus (Sa), Escherichia coli (Ec), Klebsiella pneumonia (Kp), Psedomonas aeruginosa (Pa), and Acinetobacter baumannii (Ab). All bacteria were cultured in cation-adjusted Mueller Hinton Broth (CAMHB) at 37 °C overnight. A sample of each culture was then diluted 40-fold in fresh broth and incubated at 37 °C for 1.5–3 h. The resultant mid-log phase cultures were diluted (CFU/mL measured by OD600), then added to each well of the complexes containing plates, giving a cell density of 5 × 10^5 CFU/mL and a total volume of 50 μL. All the plates were covered and incubated at 37 °C for 18 h without shaking. The inhibition of bacterial growth was determined by measuring the absorbance at 600 nm (OD600) using a Tecan M1000 Pro monochromator plate reader (Männedorf, Switzerland). The percentage of growth inhibition was calculated for each well, using the negative control (media only) and positive control (bacteria without inhibitors) on the same plate as references. […]

Compound	IC50 (Caco-2/TC7 tumor cells)	Tumor Cells Selectivity over Normal Cells (Caco-2/TC7 tumor cells)	bimolecular quenching constant kq (BSA)	Stern–Volmer quenching constant KSV (BSA)	number of binding sites n (BSA)	number of binding sites n, rounded (in brackets) (BSA)	MIC Sa [1]
Cc1ccc(-c2ccccn2)[c]([Au+][S]C(=S)N(C)C)c1.F[P-](F)(F)(F)(F)F [Complex C1, [Au(tpy)(dmdtc)] PF6]	5110 ± 120 nM	4.5-fold	1.3e+12 M⁻¹ s⁻¹	13000 M⁻¹	1.72	2	≤0.25 µg/mL
[Au(ppy)(dedtc)]PF6 [Complex C4]	2470 ± 250 nM	6.8-fold	2.01e+12 M⁻¹ s⁻¹	20100 M⁻¹	1.18	1	≤0.25 µg/mL
CCN(CC)C(=S)[S][Au+][c]1cc(C)ccc1-c1ccccn1.F[P-](F)(F)(F)(F)F [Complex C3, [Au(tpy)(dedtc)]PF6]	1850 ± 360 nM	7.0-fold	1.9e+12 M⁻¹ s⁻¹	19000 M⁻¹	0.95	1	≤0.25 µg/mL
Cc1ccc2[c](c1)[Au-]1([S]C(N(Cc3ccccc3)Cc3ccccc3)=[S+]1)[n+]1ccccc1-2.F[P-](F)(F)(F)(F)F (centres unmarked) [Complex C5, [Au(tpy)(dbdtc)]PF6]	2070 ± 110 nM	–	4.43e+12 M⁻¹ s⁻¹	44300 M⁻¹	1.57	1–2	32 µg/mL
F[P-](F)(F)(F)(F)F.S=C([S][Au+][c]1ccccc1-c1ccccn1)N(Cc1ccccc1)Cc1ccccc1 [Complex C6, [Au(ppy)(dbdtc)]PF6]	4020 ± 300 nM	6.2-fold	6.44e+12 M⁻¹ s⁻¹	64400 M⁻¹	1.43	1	4 µg/mL
CN(C)C(=S)[S][Au+][c]1ccccc1-c1ccccn1.F[P-](F)(F)(F)(F)F [Complex C2, [Au(ppy)(dmdtc)]PF6]	1790 ± 120 nM	8.8-fold	1.37e+12 M⁻¹ s⁻¹	13700 M⁻¹	1.42	1	≤0.25 µg/mL
